Measurements from US7361659B2, “Pyrrazolo-pyrimidine derivatives” (Hoffmann-La Roche Inc., priority 2005, dated 2008).

melting point	Compound
269 °C	Cc1nc(NC(=O)c2cnn3c(C(F)F)cc(-c4ccc(C(F)(F)F)cc4)nc23)sc1S(=O)(=O)N1CCN(C)CC1 [Example 68, 7-Difluoromethyl-5-(4-trifluoromethyl-phenyl)-pyrazolo[1,5-a]pyrimidine-3-carboxylic acid [4-methyl-5-(4-methyl-piperazine-1-sulfonyl)-thiazol-2-yl]-amide]
273 °C	Cc1nc(NC(=O)c2cnn3c(C(F)(F)F)cc(-c4ccc(C(F)(F)F)cc4)nc23)sc1S(=O)(=O)N1CCN(C)CC1 [Example 69, 7-Trifluoromethyl-5-(4-trifluoromethyl-phenyl)-pyrazolo[1,5-a]pyrimidine-3-carboxylic acid [4-methyl-5-(4-methyl-piperazine-1-sulfonyl)-thiazol-2-yl]-amide]
216 °C	Cc1nc(NC(=O)c2cnn3c(C(F)F)cc(-c4ccc(C(F)(F)F)cc4)nc23)sc1S(=O)(=O)N(C)CCO [Example 70, 7-Difluoromethyl-5-(4-trifluoromethyl-phenyl)-pyrazolo[1,5-a]pyrimidine-3-carboxylic acid {5-[(2-hydroxy-ethyl)-methyl-sulfamoyl]-4-methyl-thiazol-2-yl}-amide]
266 °C	Cc1nc(NC(=O)c2cnn3c(C(F)(F)F)cc(-c4ccc(C(F)(F)F)cc4)nc23)sc1S(=O)(=O)N(C)CCO [Example 71, 7-Trifluoromethyl-5-(4-trifluoromethyl-phenyl)-pyrazolo[1,5-a]pyrimidine-3-carboxylic acid {5-[(2-hydroxy-ethyl)-methyl-sulfamoyl]-4-methyl-thiazol-2-yl}-amide]
231 °C	CN(CCO)S(=O)(=O)c1cc(NC(=O)c2cnn3c(C(F)F)cc(-c4ccc(C(F)(F)F)cc4)nc23)c(Cl)s1 [Example 72, 7-Difluoromethyl-5-(4-trifluoromethyl-phenyl)-pyrazolo[1,5-a]pyrimidine-3-carboxylic acid {2-chloro-5-[(2-hydroxy-ethyl)-methyl-sulfamoyl]-thiophen-3-yl}-amide]
293 °C	CN1CCN(S(=O)(=O)c2cc(NC(=O)c3cnn4c(C(F)F)cc(-c5ccc(C(F)(F)F)cc5)nc34)c(Cl)s2)CC1 [Example 73, 7-Difluoromethyl-5-(4-trifluoromethyl-phenyl)-pyrazolo[1,5-a]pyrimidine-3-carboxylic acid [2-chloro-5-(4-methyl-piperazine-1-sulfonyl)-thiophen-3-yl]-amide]
301 °C	CN1CCN(S(=O)(=O)c2cc(NC(=O)c3cnn4c(C(F)(F)F)cc(-c5ccc(C(F)(F)F)cc5)nc34)c(Cl)s2)CC1 [Example 74, 7-Trifluoromethyl-5-(4-trifluoromethyl-phenyl)-pyrazolo[1,5-a]pyrimidine-3-carboxylic acid [2-chloro-5-(4-methyl-piperazine-1-sulfonyl)-thiophen-3-yl]-amide]
221 °C	CN(CCO)S(=O)(=O)c1cc(NC(=O)c2cnn3c(C(F)(F)F)cc(-c4ccc(C(F)(F)F)cc4)nc23)c(Cl)s1 [Example 77, 7-Trifluoromethyl-5-(4-trifluoromethyl-phenyl)-pyrazolo[1,5-a]pyrimidine-3-carboxylic acid {2-chloro-5-[(2-hydroxy-ethyl)-methyl-sulfamoyl]-thiophen-3-yl}-amide]

The next lines start with the compound.

Compound	melting point
Cc1sc(S(=O)(=O)NC(C)(C)CO)cc1NC(=O)c1cnn2c(C(F)(F)F)cc(-c3ccc(C(F)(F)F)cc3)nc12 [Example 49, 7-Trifluoromethyl-5-(4-trifluoromethyl-phenyl)-pyrazolo[1,5-a]pyrimidine-3-carboxylic acid [5-(2-hydroxy-1,1-dimethyl-ethylsulfamoyl)-2-methyl-thiophen-3-yl]-amide]	225 °C
Cc1sc(S(=O)(=O)NC(C)(C)CO)cc1NC(=O)c1cnn2c(C(F)F)cc(-c3ccc(C(F)(F)F)cc3)nc12 [Example 50, 7-Difluoromethyl-5-(4-trifluoromethyl-phenyl)-pyrazolo[1,5-a]pyrimidine-3-carboxylic acid [5-(2-hydroxy-1,1-dimethyl-ethylsulfamoyl)-2-methyl-thiophen-3-yl]-amide]	180 °C
NS(=O)(=O)c1cnc(NC(=O)c2cnn3c(C(F)(F)F)cc(-c4ccc(C(F)(F)F)cc4)nc23)s1 [Example 51, 7-Trifluoromethyl-5-(4-trifluoromethyl-phenyl)-pyrazolo[1,5-a]pyrimidine-3-carboxylic acid (5-sulfamoyl-thiazol-2-yl)-amide]	309 °C
NS(=O)(=O)c1cnc(NC(=O)c2cnn3c(C(F)F)cc(-c4ccc(C(F)(F)F)cc4)nc23)s1 [Example 52, 7-Difluoromethyl-5-(4-trifluoromethyl-phenyl)-pyrazolo[1,5-a]pyrimidine-3-carboxylic acid (5-sulfamoyl-thiazol-2-yl)-amide]	311 °C
CCOc1cc(-c2cc(C(F)(F)F)n3ncc(C(=O)Nc4nc(C)c(S(=O)(=O)NC(C)(CO)CO)s4)c3n2)ccc1C(F)(F)F [Example 53, 5-(3-Ethoxy-4-trifluoromethyl-phenyl)-7-trifluoromethyl-pyrazolo[1,5-a]pyrimidine-3-carboxylic acid [5-(2-hydroxy-1-hydroxymethyl-1-methyl-ethylsulfamoyl)-4-methyl-thiazol-2-yl]-amide]	220 °C
CN(C)CCNS(=O)(=O)c1cc(NC(=O)c2cnn3c(C(F)F)cc(-c4ccc(C(F)(F)F)cc4)nc23)c(Cl)s1 [Example 54, 7-Difluoromethyl-5-(4-trifluoromethyl-phenyl)-pyrazolo[1,5-a]pyrimidine-3-carboxylic acid [2-chloro-5-(2-dimethylamino-ethylsulfamoyl)-thiophen-3-yl]-amide]	162 °C
CN(C)CCNS(=O)(=O)c1cc(NC(=O)c2cnn3c(C(F)(F)F)cc(-c4ccc(C(F)(F)F)cc4)nc23)c(Cl)s1 [Example 55, 7-Trifluoromethyl-5-(4-trifluoromethyl-phenyl)-pyrazolo[1,5-a]pyrimidine-3-carboxylic acid [2-chloro-5-(2-dimethylamino-ethylsulfamoyl)-thiophen-3-yl]-amide]	198 °C
CCOc1cc(-c2cc(C(F)(F)F)n3ncc(C(=O)Nc4cc(S(=O)(=O)NCCO)sc4Cl)c3n2)ccc1C(F)(F)F [Example 56, 5-(3-Ethoxy-4-trifluoromethyl-phenyl)-7-trifluoromethyl-pyrazolo[1,5-a]pyrimidine-3-carboxylic acid [2-chloro-5-(2-hydroxy-ethylsulfamoyl)-thiophen-3-yl]-amide]	250 °C
Cc1nc(NC(=O)c2cnn3c(C(F)F)cc(-c4ccc(C(F)(F)F)cc4)nc23)sc1S(=O)(=O)NCCN(C)C [Example 57, 7-Difluoromethyl-5-(4-trifluoromethyl-phenyl)-pyrazolo[1,5-a]pyrimidine-3-carboxylic acid [5-(2-dimethylamino-ethylsulfamoyl)-4-methyl-thiazol-2-yl]-amide]	217 °C
Cc1nc(NC(=O)c2cnn3c(C(F)(F)F)cc(-c4ccc(C(F)(F)F)cc4)nc23)sc1S(=O)(=O)NCCN(C)C [Example 58, 7-Trifluoromethyl-5-(4-trifluoromethyl-phenyl)-pyrazolo[1,5-a]pyrimidine-3-carboxylic acid [5-(2-dimethylamino-ethylsulfamoyl)-4-methyl-thiazol-2-yl]-amide]	235 °C
CC(C)(CO)NS(=O)(=O)c1cnc(NC(=O)c2cnn3c(C(F)(F)F)cc(-c4ccc(C(F)(F)F)cc4)nc23)s1 [Example 59, 7-Trifluoromethyl-5-(4-trifluoromethyl-phenyl)-pyrazolo[1,5-a]pyrimidine-3-carboxylic acid [5-(2-hydroxy-1,1-dimethyl-ethylsulfamoyl)-thiazol-2-yl]-amide]	292 °C
CC(C)(CO)NS(=O)(=O)c1cnc(NC(=O)c2cnn3c(C(F)F)cc(-c4ccc(C(F)(F)F)cc4)nc23)s1 [Example 60, 7-Difluoromethyl-5-(4-trifluoromethyl-phenyl)-pyrazolo[1,5-a]pyrimidine-3-carboxylic acid [5-(2-hydroxy-1,1-dimethyl-ethylsulfamoyl)-thiazol-2-yl]-amide]	280 °C
CC(C)(CO)NS(=O)(=O)c1cc(NC(=O)c2cnn3c(C4CC4)cc(-c4ccc(Cl)cc4)nc23)c(Cl)s1 [Example 61, 5-(4-Chloro-phenyl)-7-cyclopropyl-pyrazolo[1,5-a]pyrimidine-3-carboxylic acid [2-chloro-5-(2-hydroxy-1,1-dimethyl-ethylsulfamoyl)-thiophen-3-yl]-amide]	238 to 241 °C
Cc1nc(NC(=O)c2cnn3c(C4CC4)cc(-c4ccc(Cl)cc4)nc23)sc1S(=O)(=O)NC(C)(C)CO [Example 62, 5-(4-Chloro-phenyl)-7-cyclopropyl-pyrazolo[1,5-a]pyrimidine-3-carboxylic acid [5-(2-hydroxy-1,1-dimethyl-ethylsulfamoyl)-4-methyl-thiazol-2-yl]-amide]	293 to 294 °C
Cc1nc(NC(=O)c2cnn3c(C(F)F)cc(-c4ccc(C(F)(F)F)cc4)nc23)sc1S(=O)(=O)NC(CO)CO [Example 63, 7-Difluoromethyl-5-(4-trifluoromethyl-phenyl)-pyrazolo[1,5-a]pyrimidine-3-carboxylic acid [5-(2-hydroxy-1-hydroxymethyl-ethylsulfamoyl)-4-methyl-thiazol-2-yl]-amide]	217 °C
Cc1nc(NC(=O)c2cnn3c(C(F)(F)F)cc(-c4ccc(C(F)(F)F)cc4)nc23)sc1S(=O)(=O)NC(CO)CO [Example 64, 7-Trifluoromethyl-5-(4-trifluoromethyl-phenyl)-pyrazolo[1,5-a]pyrimidine-3-carboxylic acid [5-(2-hydroxy-1-hydroxymethyl-ethylsulfamoyl)-4-methyl-thiazol-2-yl]-amide]	215 °C
NCCNS(=O)(=O)c1cc(NC(=O)c2cnn3c(C(F)F)cc(-c4ccc(C(F)(F)F)cc4)nc23)c(Cl)s1 [Example 65, 7-Difluoromethyl-5-(4-trifluoromethyl-phenyl)-pyrazolo[1,5-a]pyrimidine-3-carboxylic acid [5-(2-amino-ethylsulfamoyl)-2-chloro-thiophen-3-yl]-amide]	150 °C
